This note sets out measurements from EP4610269A1, “UROKINASE PLASMINOGEN ACTIVATOR SURFACE RECEPTOR (UPAR) LIGANDS FOR DIAGNOSTIC OR THERAPEUTIC USE” (3B Pharmaceuticals GmbH, priority 2024, dated 2025).

Read-outs that look alike come from different tables or passages of the source. *1 amine or outer side, *2 acyl side, *3 side chain or, on linkers, in order; H or OH if unused. Where a SMILES comes first, the peptide text is derived from it. Bridges are numbered along the chain shown (N, C = ends). [ ]: non-standard residue; d: D form. The star is where a group is joined. Pro(trans-4-NH2) = O=C([C@@H]1C[C@@H](N[*:3])CN1[*:1])[*:2]; DOTA = O=C(O)CN1CCN(CC(=O)O)CCN(CC(=O)*)CCN(CC(=O)O)CC1; Pentanoyl(4-Me) = CC(C)CCC(=O)*; Cit = NC(=O)NCCC[C@H](N)C(=O)O; AEEA = NCCOCCOCC(=O)O Bounds are passed on as bounds.

By IC50 is commonly meant the concentration that gives 50% inhibition. A low value points to higher potency.

Experiment [1] deals with T1, uPAR-expressing HEC-265 human endometrial adenocarcinoma cells (Homo sapiens, UniProt Q03405).
T1 construct: Cell surface uPAR-expressing HEC-265 human endometrial adenocarcinoma cells; host or cells: HEC-265
Description: Competitive FACS binding assay. The settings on record: pIC50 category of FACS binding. The method, boiled down: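 HEC-265 cells incubated 1 h at 4 °C with 10 nM biotinylated uPAR peptide tracer plus increasing test compound, then stained with APC-streptavidin on ice. Median APC fluorescence by flow cytometry; 4PL fit gives pIC50.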

Another experiment addresses T2, human uPAR (uPAR-Fc) (Homo sapiens, UniProt Q03405).
T2 construct: comprising amino acids Leu23-Arg303 according to UniProt entry Q03405.1; purchased R&D Systems 10378-UK-100
Description: Surface plasmon resonance (SPR) assay, single cycle kinetics. The settings on record: pKD category for uPAR SPR activity assay, uPAR-Fc on Protein A-Chip, 25°C, read-out: pKD CAT (converted). Format: binding. The method, boiled down:
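uPAR-Fc (Leu23-Arg303 extracellular domains, human IgG1 Fc) captured on Protein A chip to ~2000 RU; single-cycle kinetics at 25°C in HEPES running buffer pH 7.4 with 0.1% DMSO. KD from double-referenced sensorgrams fitted to 1:1 Langmuir model, reported as pKD.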

T2 sequence (Q03405 23-303): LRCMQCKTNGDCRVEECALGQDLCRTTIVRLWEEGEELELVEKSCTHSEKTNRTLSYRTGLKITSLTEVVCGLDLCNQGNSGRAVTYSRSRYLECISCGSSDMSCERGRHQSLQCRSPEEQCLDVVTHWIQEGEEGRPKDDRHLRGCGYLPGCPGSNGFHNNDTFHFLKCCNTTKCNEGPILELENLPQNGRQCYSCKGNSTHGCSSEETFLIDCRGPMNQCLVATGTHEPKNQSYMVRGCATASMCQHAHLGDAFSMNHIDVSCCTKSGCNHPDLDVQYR
T1 sequence (Q03405 23-335): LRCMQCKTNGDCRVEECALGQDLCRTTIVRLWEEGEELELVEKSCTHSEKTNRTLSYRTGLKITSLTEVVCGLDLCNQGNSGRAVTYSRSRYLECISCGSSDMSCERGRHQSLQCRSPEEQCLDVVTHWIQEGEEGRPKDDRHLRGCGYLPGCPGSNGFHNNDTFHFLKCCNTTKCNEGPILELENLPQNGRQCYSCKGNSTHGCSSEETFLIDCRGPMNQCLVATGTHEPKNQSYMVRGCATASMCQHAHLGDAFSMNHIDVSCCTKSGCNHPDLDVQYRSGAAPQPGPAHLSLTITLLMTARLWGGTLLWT

In experiment [1], `CC[C@H](C)[C@@H]1NC(=O)[C@@H]2C[C@@H](NC(=O)CN3CCN(CC(=O)O)CCN(CC(=O)O)CCN(CC(=O)O)CC3)CN2C(=O)[C@@H]2CCCN2C(=O)[C@H](Cc2ccccc2)NC(=O)[C@H](Cc2ccc(O)cc2)NC(=O)[C@H](CCC(N)=O)NC(=O)[C@H](CCCNC(N)=O)NC(=O)[C@@H](NC(=O)CCC(C)C)CSSC[C@@H](C(N)=O)NC(=O)[C@H](CC(C)C)NC1=O` [UPAR-389, iHex-[Cys-Cit-Gln-Tyr-Phe-Pro-Tap(DOTA)-Ile-Leu-Cys]-NH2] ({Pentanoyl(4-Me)}-C[Cit]QYFP[Pro(trans-4-NH2)](DOTA)ILC-NH2; disulfide 1-10) gave a half-inhibitory concentration (IC50) not above 10 nM. Further, at human uPAR (uPAR-Fc) (single cycle kinetics), the Kd is less than 1.58 nM.

In turn, `CC[C@H](C)[C@@H]1NC(=O)[C@@H](C)NC(=O)[C@@H]2CCCN2C(=O)[C@H](Cc2ccccc2)NC(=O)[C@H](Cc2ccc(O)cc2)NC(=O)[C@H](CCC(N)=O)NC(=O)[C@H](CCCNC(N)=O)NC(=O)[C@@H](NC(=O)[C@H](CC(C)C)NC(=O)CN2CCN(CC(=O)O)CCN(CC(=O)O)CCN(CC(=O)O)CC2)CSSC[C@@H](C(N)=O)NC(=O)[C@H](CC(C)C)NC1=O` [UPAR-441, DOTA-Leu-[Cys-Cit-Gln-Tyr-Phe-Pro-ala-Ile-Leu-Cys]-NH2] ({DOTA}-LC[Cit]QYFP[dA]ILC-NH2; disulfide 2-11) gave an IC50 in experiment [1] of 39.8 to 100 nM. Moreover, at human uPAR (uPAR-Fc) (single cycle kinetics), the Kd was less than 1.58 nM.

Regarding `CC[C@H](C)[C@@H]1NC(=O)[C@@H](C)NC(=O)[C@@H]2CCCN2C(=O)[C@H](Cc2ccccc2)NC(=O)[C@H](Cc2ccc(O)cc2)NC(=O)[C@H](CCC(N)=O)NC(=O)[C@H](CCCNC(N)=O)NC(=O)[C@@H](NC(=O)CCC(C)C)CSSC[C@@H](C(N)=O)NC(=O)[C@H](CC(C)C)NC1=O` [UPAR-338, iHex-[Cys-Cit-Gln-Tyr-Phe-Pro-ala-Ile-Leu-Cys]-NH2] ({Pentanoyl(4-Me)}-C[Cit]QYFP[dA]ILC-NH2; disulfide 1-10), the IC50 in experiment [1] was not above 10 nM. In addition, the Kd at human uPAR (uPAR-Fc) was less than 1.58 nM.

In experiment [1], `CC[C@H](C)[C@@H]1NC(=O)[C@@H]2CCCN2C(=O)[C@@H]2CCCN2C(=O)[C@H](Cc2ccccc2)NC(=O)[C@H](Cc2ccc(O)cc2)NC(=O)[C@H](CCC(N)=O)NC(=O)[C@H](CCCNC(N)=O)NC(=O)[C@@H](NC(=O)[C@H](CC(C)C)NC(=O)COCCOCCNC(=O)CN2CCN(CC(=O)O)CCN(CC(=O)O)CCN(CC(=O)O)CC2)CSSC[C@@H](C(N)=O)NC(=O)[C@H](CC(C)C)NC1=O` [UPAR-229, DOTA-O2Oc-Leu-[Cys-Cit-Gln-Tyr-Phe-Pro-Pro-Ile-Leu-Cys]-NHz] ({DOTA-AEEA}-LC[Cit]QYFPPILC-NH2; disulfide 2-11) had an IC50 not above 10 nM. Moreover, on human uPAR (uPAR-Fc), the Kd was less than 1.58 nM.
